Reference: the supplement of paper PMC4862054

Tests used:
Assay in all cases: normalised viability (% of control), CellTiter-Blue; higher = more viable cells (about 100 = DMSO control)
Conditions in all cases: incubation time: 72 h
HCC1599 [1] = tested on: HCC1599
Outline: (§1)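 Vehicle (100) and a positive kill control (0) anchored the normalisation of each plate, and Z'-factor was used for quality control. Breast cancer cell lines in 20 µl suspension were incubated 72 h over compound in 5 µl medium in 384-well plates, followed by CellTiter-Blue at 560/590 nm. The value is normalised viability at a single listed concentration of the series.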

HCC1143 = tested on: HCC1143
Outline: as §1

HDQ-P1 [2] = tested on: HDQ-P1
Outline: as §1

BT-549 [3] = tested on: BT-549
Outline: as §1

MDA-MB-468 [4] = tested on: MDA-MB-468
Outline: as §1

CAL-51 [5] = tested on: CAL-51
Outline: as §1

SK-BR-3 = tested on: SK-BR-3
Outline: as §1

CAL-85-1 [6] = tested on: CAL-85-1
Outline: as §1

MDA-MB-231 [7] = tested on: MDA-MB-231
Outline: as §1

HCC1937 [8] = tested on: HCC1937
Outline: as §1

MFM-223 = tested on: MFM-223
Outline: as §1

MDA-MB-453 [9] = tested on: MDA-MB-453
Outline: as §1

MDA-MB-436 [10] = tested on: MDA-MB-436
Outline: as §1

Hs578T [11] = tested on: Hs578T
Outline: as §1

CAL-120 = tested on: CAL-120
Outline: as §1

DU-4475 [12] = tested on: DU-4475
Description: (§2)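 DSRT, CellTiter-Blue viability, 72 h incubation. Signal is normalised to DMSO and benzethonium chloride controls. Value is the normalised response at dose 7.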

HDQ-P1 [13] = tested on: HDQ-P1; remark: listed apart in the source
Description: as §2

CAL-148 [14] = tested on: CAL-148
Description: as §2

CAL-51 [15] = tested on: CAL-51; remark: listed apart in the source
Description: as §2

CAL-85-1 [16] = tested on: CAL-85-1; remark: listed apart in the source
Description: as §2

MDA-MB-453 [17] = tested on: MDA-MB-453; remark: listed apart in the source
Description: as §2

HCC1599 [18] = tested on: HCC1599; remark: listed apart in the source
Outline: as §1

DU-4475 [19] = tested on: DU-4475; remark: listed apart in the source
Outline: as §1

HDQ-P1 [20] = tested on: HDQ-P1; remark: listed apart in the source
Outline: as §1

BT-549 [21] = tested on: BT-549; remark: listed apart in the source
Outline: as §1

MDA-MB-468 [22] = tested on: MDA-MB-468; remark: listed apart in the source
Outline: as §1

CAL-148 [23] = tested on: CAL-148; remark: listed apart in the source
Outline: as §1

CAL-51 [24] = tested on: CAL-51; remark: listed apart in the source
Outline: as §1

BT-474 = tested on: BT-474
Outline: as §1

CAL-85-1 [25] = tested on: CAL-85-1; remark: listed apart in the source
Outline: as §1

MDA-MB-231 [26] = tested on: MDA-MB-231; remark: listed apart in the source
Outline: as §1

HCC1937 [27] = tested on: HCC1937; remark: listed apart in the source
Outline: as §1

MDA-MB-436 [28] = tested on: MDA-MB-436; remark: listed apart in the source
Outline: as §1

Hs578T [29] = tested on: Hs578T; remark: listed apart in the source
Outline: as §1

Cn1cncc1[C@@](N)(c1ccc(Cl)cc1)c1ccc2c(c1)c(-c1cccc(Cl)c1)cc(=O)n2C [Tipifarnib]
normalised viability (HCC1599 [1]; 10 nM): 92.7%
normalised viability (HCC1143; 10 nM): 71.9%
normalised viability (HDQ-P1 [2]; 3 nM): 74.6%
normalised viability (BT-549 [3]; 10 nM): 86.3%
normalised viability (MDA-MB-468 [4]; 10 nM): 96.8%
normalised viability (CAL-51 [5]; 3 nM): 108%
normalised viability (SK-BR-3; 10 nM): 91%
normalised viability (CAL-85-1 [6]; 3 nM): 81.4%
normalised viability (MDA-MB-231 [7]; 10 nM): 82.2%
normalised viability (HCC1937 [8]; 10 nM): 95.6%
normalised viability (MFM-223; 10 nM): 84.6%
normalised viability (MDA-MB-453 [9]; 3 nM): 102%
normalised viability (MDA-MB-436 [10]; 10 nM): 94.1%
normalised viability (Hs578T [11]; 10 nM): 88.9%
normalised viability (CAL-120; 10 nM): 77.6%
normalised viability (DU-4475 [12]; 1000 nM): 40.6%
normalised viability (HDQ-P1 [13]; 1000 nM): 66.6%
normalised viability (CAL-148 [14]; 1000 nM): 42.9%
normalised viability (CAL-51 [15]; 1000 nM): 59.9%
normalised viability (CAL-85-1 [16]; 1000 nM): 62.8%
normalised viability (MDA-MB-453 [17]; 1000 nM): 49.1%
normalised viability (HCC1599 [18]; 10000 nM): 51.7%
normalised viability (DU-4475 [19]; 100 nM): 54.9%
normalised viability (HDQ-P1 [20]; 100 nM): 70.7%
normalised viability (BT-549 [21]; 10000 nM): 30.1%
normalised viability (MDA-MB-468 [22]; 10000 nM): 26.4%
normalised viability (CAL-148 [23]; 100 nM): 45.6%
normalised viability (CAL-51 [24]; 100 nM): 63.4%
normalised viability (BT-474; 10000 nM): 45%
normalised viability (CAL-85-1 [25]; 100 nM): 76.8%
normalised viability (MDA-MB-231 [26]; 10000 nM): 48.8%
normalised viability (HCC1937 [27]; 10000 nM): 32.3%
normalised viability (MDA-MB-436 [28]; 10000 nM): 54.9%
normalised viability (Hs578T [29]; 10000 nM): 39.3%

O=C1NC(=O)[C@@H](c2cn3c4c(cccc24)CCC3)[C@@H]1c1c[nH]c2ccccc12 [Tivantinib]
normalised viability (HCC1599 [1]; 1 nM): 115%
normalised viability (HCC1143; 1 nM): 90.7%
normalised viability (HDQ-P1 [2]; 0.3 nM): 104%
normalised viability (BT-549 [3]; 1 nM): 107%
normalised viability (MDA-MB-468 [4]; 1 nM): 112%
normalised viability (CAL-51 [5]; 0.3 nM): 104%
normalised viability (SK-BR-3; 1 nM): 105%
normalised viability (CAL-85-1 [6]; 0.3 nM): 90.2%
normalised viability (MDA-MB-231 [7]; 1 nM): 106%
normalised viability (HCC1937 [8]; 1 nM): 67.8%
normalised viability (MFM-223; 1 nM): 83.8%
normalised viability (MDA-MB-453 [9]; 0.3 nM): 122%
normalised viability (MDA-MB-436 [10]; 1 nM): 97.7%
normalised viability (Hs578T [11]; 1 nM): 133%
normalised viability (CAL-120; 1 nM): 93.4%
normalised viability (DU-4475 [12]; 100 nM): 109%
normalised viability (HDQ-P1 [13]; 100 nM): 106%
normalised viability (CAL-148 [14]; 100 nM): 112%
normalised viability (CAL-51 [15]; 100 nM): 104%
normalised viability (CAL-85-1 [16]; 100 nM): 77.2%
normalised viability (MDA-MB-453 [17]; 100 nM): 78.1%
normalised viability (HCC1599 [18]; 1000 nM): 79%
normalised viability (DU-4475 [19]; 10 nM): 82.9%
normalised viability (HDQ-P1 [20]; 10 nM): 100%
normalised viability (BT-549 [21]; 1000 nM): 26.8%
normalised viability (MDA-MB-468 [22]; 1000 nM): 42.4%
normalised viability (CAL-148 [23]; 10 nM): 97.9%
normalised viability (CAL-51 [24]; 10 nM): 108%
normalised viability (BT-474; 1000 nM): 45.4%
normalised viability (CAL-85-1 [25]; 10 nM): 104%
normalised viability (MDA-MB-231 [26]; 1000 nM): 29.8%
normalised viability (HCC1937 [27]; 1000 nM): 30.4%
normalised viability (MDA-MB-436 [28]; 1000 nM): 52.3%
normalised viability (Hs578T [29]; 1000 nM): 19.9%
